ChEMBL document CHEMBL1127923, “Design and synthesis of squalene synthase inhibitors - acylic mimics of the zaragazic acids” (Bioorg Med Chem Lett, 1994)

These molecules were tested against T1, Squalene synthase (Rattus norvegicus) (UniProt Q02769) (assay: Inhibitory activity against squalene synthase in rat liver squalene synthase (RLSS) enzyme assay).
T1 sequence (whole entry): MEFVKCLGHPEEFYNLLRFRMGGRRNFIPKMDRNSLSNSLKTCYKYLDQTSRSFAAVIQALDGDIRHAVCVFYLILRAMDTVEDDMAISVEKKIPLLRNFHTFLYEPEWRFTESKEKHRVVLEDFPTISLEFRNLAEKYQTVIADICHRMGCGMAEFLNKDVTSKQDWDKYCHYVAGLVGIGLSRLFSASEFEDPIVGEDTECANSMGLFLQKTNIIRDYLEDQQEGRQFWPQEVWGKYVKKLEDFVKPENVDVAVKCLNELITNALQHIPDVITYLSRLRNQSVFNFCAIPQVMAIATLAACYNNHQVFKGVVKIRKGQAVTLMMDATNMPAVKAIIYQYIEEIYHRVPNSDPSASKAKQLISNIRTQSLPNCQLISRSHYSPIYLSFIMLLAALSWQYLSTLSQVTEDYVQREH

SMILES | Activity [nM]
C=C(CCC12OC(C(=O)O)C(O)(C(=O)O)C(C(=O)O)(O1)[C@H](OC(=O)/C=C/[C@@H](C)C[C@@H](C)CC)[C@H]2O)[C@@H](OC(C)=O)[C@H](C)Cc1ccccc1 (some centres not stated) | 0.35
CC(=O)O[C@H](CCOC(=O)C[C@@H](OC(=O)CCCCCCCCCCOc1ccccc1)C(=O)O[C@H](CC(=O)O)C(=O)O)[C@H](C)Cc1ccccc1 | 200
CC(=O)O[C@H](CCCOC(=O)C(OC(=O)CCCCCCCCCCOc1ccccc1)C(=O)O[C@H](CC(=O)O)C(=O)O)[C@H](C)Cc1ccccc1 (some centres not stated) | > 3000
CC(=O)O[C@H](CCCOC(=O)C[C@@H](OC(=O)CCCCCCCCCCOc1ccccc1)C(=O)OC(C(=O)O)C(=O)O)[C@H](C)Cc1ccccc1 | 200
CC[C@H](C)C[C@H](C)/C=C/C(=O)O[C@H](CC(=O)OCCC[C@@H](OC(=O)C(F)(F)F)[C@H](C)Cc1ccccc1)C(=O)O[C@@H](C(=O)O)[C@@H](O)C(=O)O | 300
CC(=O)O[C@H](CCCOC(=O)C[C@@H](OC(=O)CCCCCCCCCCOc1ccccc1)C(=O)N1CCC[C@H]1C(=O)O)[C@H](C)Cc1ccccc1 | > 3000
CC[C@H](C)C[C@H](C)/C=C/C(=O)O[C@H](CC(=O)OCCC[C@@H](OC(C)=O)[C@H](C)Cc1ccccc1)C(=O)O[C@H](CC(=O)O)C(=O)O | 470
